From US20240116985A1, “STAPLED PEPTIDES AND METHODS THEREOF” (priority 2020, published 2024)
≈ marks a conversion by molar mass, not a printed value. Read-outs that look alike come from different tables or passages of the source.

What was measured:
CHI Log D procedure = format: physicochemical; conditions: pH 7.4, CHI Log D
[1] = molecular target: T1, full-length beta-Catenin (Uniprot ID P35222) (Homo sapiens, UniProt P35222); assay: Fluorescence polarization IC50 (beta-catenin / 5FAM-TCF4 10-53 competition); format: binding; conditions: read-out: beta-Catenin FP IC50
T1 construct: 10 nM full-length beta-Catenin (Uniprot ID P35222)
T1 sequence (P35222 1-781): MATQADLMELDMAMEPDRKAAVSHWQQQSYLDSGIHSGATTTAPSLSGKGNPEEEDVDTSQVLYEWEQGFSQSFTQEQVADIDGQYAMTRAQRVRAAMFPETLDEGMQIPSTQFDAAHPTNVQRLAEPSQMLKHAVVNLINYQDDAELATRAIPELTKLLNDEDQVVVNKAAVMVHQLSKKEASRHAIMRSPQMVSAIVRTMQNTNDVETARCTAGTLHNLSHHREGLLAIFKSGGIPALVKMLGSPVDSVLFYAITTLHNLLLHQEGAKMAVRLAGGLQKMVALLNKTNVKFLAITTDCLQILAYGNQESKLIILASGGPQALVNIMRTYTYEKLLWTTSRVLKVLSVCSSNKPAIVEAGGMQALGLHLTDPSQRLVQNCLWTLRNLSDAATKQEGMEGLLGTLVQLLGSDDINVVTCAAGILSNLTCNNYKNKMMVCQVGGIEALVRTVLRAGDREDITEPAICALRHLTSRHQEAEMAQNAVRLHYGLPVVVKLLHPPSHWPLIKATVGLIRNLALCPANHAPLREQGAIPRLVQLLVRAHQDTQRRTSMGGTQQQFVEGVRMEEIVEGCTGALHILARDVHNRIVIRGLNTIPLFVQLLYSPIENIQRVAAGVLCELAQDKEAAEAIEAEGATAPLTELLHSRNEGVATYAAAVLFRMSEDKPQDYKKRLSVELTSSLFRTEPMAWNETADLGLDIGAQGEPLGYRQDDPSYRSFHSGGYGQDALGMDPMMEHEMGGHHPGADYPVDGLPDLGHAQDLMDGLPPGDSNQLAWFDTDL

[2] = molecular target: T2, beta-catenin/TCF4 engagement (Homo sapiens, UniProt P35222); assay: Nano-BRET target engagement assay (B-cat-Halo & TCF4-Luc in HEK293 cells); format: cell-based; conditions: read-out: NanoBRET Abs IC50
T2 construct: expressed in transfected cells; host or cells: HEK293
T2 sequence (P35222 1-781): T1 sequence (P35222 1-781)

Solubility in PBS = format: physicochemical
In short: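 Read-out is the HPLC peak area of the supernatant from ultracentrifuged PBS solution, scaled against a 50 μM peptide DMSO injection; value reported as [(PBS area)/(DMSO area)]*50 uM.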

Structure (SMILES) | chromatographic logD (CHI Log D procedure) | IC50 [1] [nM] | IC50 [2] [nM] | Solubility (Solubility in PBS; Solubility (uM)) [µM] | Solubility (Solubility in PBS) [µM] | IC50 ([2]; absolute IC50) [nM]
CC(=O)N1CCC[C@]12CC=CCCCC1(CCCC=CCCCCCC[C@@](C)(C(=O)N[C@@H](Cc3ccccc3Cl)C(=O)N[C@@H](Cc3csc4ccccc34)C(=O)N[C@@H](C(N)=O)[C@H](C)O)NC(=O)[C@H]([C@@H](C)O)NC(=O)[C@H](Cc3ccccc3)NC(=O)[C@H](C)NC(=O)[C@H](C)NC(=O)[C@H](CC(=O)O)NC(=O)[C@H](CC(=O)O)NC1=O)NC(=O)[C@H](CC(C)(C)C)NC(=O)[C@H](CC(=O)O)NC2=O (stereo partly drawn) [I-1092, Ac-PL3-Asp-Npg-B5-Asp-Asp-Ala-Ala-Phe-Thr-S8-2C1F-BztA-dThr-NH2] | 3.17 | 26 | 7700 | 28 (≈ 52.2 µg/mL) | – | –
CC(=O)N1CCC[C@]12CC=CCCCC1(CCCC=CCCCCCC[C@@](C)(C(=O)N[C@@H](Cc3ccccc3Cl)C(=O)N[C@@H](Cc3csc4ccccc34)C(=O)N[C@@H](CCC(N)=O)C(N)=O)NC(=O)[C@H](CC(C)C)NC(=O)[C@H](Cc3ccccc3)NC(=O)[C@H](C)NC(=O)[C@H](C)NC(=O)[C@H](CCC(=O)O)NC(=O)[C@H](CC(=O)O)NC1=O)NC(=O)[C@H](CC(C)(C)C)NC(=O)[C@H](CC(=O)O)NC2=O (stereo partly drawn) [I-1096, Ac-PL3-Asp-Npg-B5-Asp-Glu-Ala-Ala-Phe-Leu-S8-2C1F-BztA-Gln-NH2] | 3.18 | 17 | 8600 | – | 10 (≈ 19.2 µg/mL) | –
CC(=O)N1CCC[C@]12CC=CCCCC1(CCCC=CCCCOC(=O)N3CC[C@@](C(=O)N[C@@H](Cc4ccccc4)C(=O)N[C@@H](Cc4csc5ccccc45)C(=O)N[C@@H](CO)C(N)=O)(C3)NC(=O)[C@H](CO)NC(=O)[C@H](CC3CCCCC3)NC(=O)[C@H](C)NC(=O)[C@H](C)NC(=O)[C@H](CC(=O)O)NC(=O)[C@H](CC(=O)O)NC1=O)NC(=O)[C@H](CC(C)(C)C)NC(=O)[C@H](CC(=O)O)NC2=O (stereo partly drawn) [I-1105, Ac-PL3-Asp-Npg-B5-Asp-Asp-Ala-Ala-Cha-Ser-PyrS2-Phe-BztA-Ser-NH2] | 2.33 | 36 | – | 48 (≈ 88.8 µg/mL) | – | > 20000
CC(=O)N1CCC[C@]12CC=CCCCC1(CCCC=CCCCOC(=O)N3CC[C@@](C(=O)N[C@@H](CC4CCCCC4)C(=O)N[C@@H](Cc4csc5ccccc45)C(=O)N[C@@H](CO)C(N)=O)(C3)NC(=O)[C@H](CO)NC(=O)[C@H](Cc3ccccc3)NC(=O)[C@H](C)NC(=O)[C@H](C)NC(=O)[C@H](CC(=O)O)NC(=O)[C@H](CC(=O)O)NC1=O)NC(=O)[C@H](CC(C)(C)C)NC(=O)[C@H](CC(=O)O)NC2=O (stereo partly drawn) [I-1106, Ac-PL3-Asp-Npg-B5-Asp-Asp-Ala-Ala-Phe-Ser-PyrS2-Cha-BztA-Ser-NH2] | 2.44 | 23 | – | 47 (≈ 87 µg/mL) | – | > 20000
CC(=O)N1CCC[C@]12CC=CCCCC1(CCCC=CCCCOC(=O)N3CC[C@@](C(=O)N[C@@H](Cc4ccccc4Cl)C(=O)N[C@@H](Cc4csc5ccccc45)C(=O)N[C@@H](CCC(N)=O)C(N)=O)(C3)NC(=O)[C@H](CC3CCCCC3)NC(=O)[C@H](Cc3ccccc3)NC(=O)[C@H](C)NC(=O)[C@H](C)NC(=O)[C@H](CC(=O)O)NC(=O)[C@H](CC(=O)O)NC1=O)NC(=O)[C@H](CC1CCCCC1)NC(=O)[C@H](CC(=O)O)NC2=O (stereo partly drawn) [I-1107, Ac-PL3-Asp-Cha-B5-Asp-Asp-Ala-Ala-Phe-Cha-PyrS2-2C1F-BztA-Gln-NH2] | 2.64 | 18 | 11800 | – | 10 (≈ 20.1 µg/mL) | –
CC(=O)N1CCC[C@]12CC=CCCCC1(CCCC=CCCCOC(=O)N3CC[C@@](C(=O)N[C@@H](Cc4ccccc4Cl)C(=O)N[C@@H](Cc4csc5ccccc45)C(=O)N[C@@H](CCC(N)=O)C(N)=O)(C3)NC(=O)[C@H](CO)NC(=O)[C@H](Cc3ccccc3)NC(=O)[C@H](C)NC(=O)[C@H](C)NC(=O)[C@H](CC(=O)O)NC(=O)[C@H](CC(=O)O)NC1=O)NC(=O)[C@H](Cc1cccc3ccccc13)NC(=O)[C@H](CC(=O)O)NC2=O (stereo partly drawn) [I-1108, Ac-PL3-Asp-1NapA-B5-Asp-Asp-Ala-Ala-Phe-Ser-PyrS2-2C1F-BztA-Gln-NH2] | 2.29 | 18 | > 20000 | 42 (≈ 83.6 µg/mL) | – | –
CC(=O)N1CCC[C@]12CC=CCCCC1(CCCC=CCCCOC(=O)N3CC[C@@](C(=O)N[C@@H](Cc4ccccc4Cl)C(=O)N[C@@H](Cc4csc5ccccc45)C(=O)N[C@@H](CCC(N)=O)C(N)=O)(C3)NC(=O)[C@H](CO)NC(=O)[C@H](Cc3ccccc3)NC(=O)[C@H](C)NC(=O)[C@H](C)NC(=O)[C@H](CC(=O)O)NC(=O)[C@H](CC(=O)O)NC1=O)NC(=O)[C@H](Cc1ccc3ccccc3c1)NC(=O)[C@H](CC(=O)O)NC2=O (stereo partly drawn) [I-1109, Ac-PL3-Asp-2NapA-B5-Asp-Asp-Ala-Ala-Phe-Ser-PyrS2-2C1F-BztA-Gln-NH2] | 2.31 | 24 | > 20000 | 45 (≈ 89.5 µg/mL) | – | –

Now those with a lower IC50 [1], led by results:

chromatographic logD (CHI Log D procedure) | IC50 [1] [nM] | IC50 [2] [nM] | Solubility (Solubility in PBS; Solubility (uM)) [µM] | Solubility (Solubility in PBS) [µM] | IC50 ([2]; absolute IC50) [nM] | Structure (SMILES)
2.16 | 9 | – | 47 (≈ 86.7 µg/mL) | – | 9000 | CC(=O)N1CCC[C@]12CC=CCCCC1(CCCC=CCCCOC(=O)N3CC[C@@](C(=O)N[C@@H](Cc4ccccc4)C(=O)N[C@@H](Cc4csc5ccccc45)C(=O)N[C@@H](CO)C(N)=O)(C3)NC(=O)[C@H](CO)NC(=O)[C@H](Cc3ccccc3)NC(=O)[C@H](C)NC(=O)[C@H](C)NC(=O)[C@H](CC(=O)O)NC(=O)[C@H](CC(=O)O)NC1=O)NC(=O)[C@H](CC(C)(C)C)NC(=O)[C@H](CC(=O)O)NC2=O (stereo partly drawn) [I-1099, Ac-PL3-Asp-Npg-B5-Asp-Asp-Ala-Ala-Phe-Ser-PyrS2-Phe-BztA-Ser-NH2]
2.36 | 16 | 24300 | 46 (≈ 86 µg/mL) | – | – | CC(=O)N1CCC[C@]12CC=CCCCC1(CCCC=CCCCOC(=O)N3CC[C@@](C(=O)N[C@@H](Cc4ccccc4)C(=O)N[C@@H](Cc4csc5ccccc45)C(=O)N[C@@H](CO)C(N)=O)(C3)NC(=O)[C@H](CO)NC(=O)[C@H](Cc3ccccc3)NC(=O)[C@H](C)NC(=O)[C@H](C)NC(=O)[C@H](CC(=O)O)NC(=O)[C@H](CC(=O)O)NC1=O)NC(=O)[C@H](CC1CCCCC1)NC(=O)[C@H](CC(=O)O)NC2=O (stereo partly drawn) [I-1100, Ac-PL3-Asp-Cha-B5-Asp-Asp-Ala-Ala-Phe-Ser-PyrS2-Phe-BztA-Ser-NH2]
2.22 | 14 | 27000 | 48 (≈ 89.4 µg/mL) | – | – | CC(=O)N1CCC[C@]12CC=CCCCC1(CCCC=CCCCOC(=O)N3CC[C@@](C(=O)N[C@@H](Cc4ccccc4F)C(=O)N[C@@H](Cc4csc5ccccc45)C(=O)N[C@@H](CO)C(N)=O)(C3)NC(=O)[C@H](CO)NC(=O)[C@H](Cc3ccccc3)NC(=O)[C@H](C)NC(=O)[C@H](C)NC(=O)[C@H](CC(=O)O)NC(=O)[C@H](CC(=O)O)NC1=O)NC(=O)[C@H](CC(C)(C)C)NC(=O)[C@H](CC(=O)O)NC2=O (stereo partly drawn) [I-1101, Ac-PL3-Asp-Npg-B5-Asp-Asp-Ala-Ala-Phe-Ser-PyrS2-2FF-BztA-Ser-NH2]
2.18 | 15 | 16700 | 46 (≈ 86.2 µg/mL) | – | – | COc1ccccc1C[C@H](NC(=O)[C@]12CCN(C1)C(=O)OCCCC=CCCCC1(CCCC=CC[C@]3(CCCN3C(C)=O)C(=O)N[C@@H](CC(=O)O)C(=O)N[C@@H](CC(C)(C)C)C(=O)N1)C(=O)N[C@@H](CC(=O)O)C(=O)N[C@@H](CC(=O)O)C(=O)N[C@@H](C)C(=O)N[C@@H](C)C(=O)N[C@@H](Cc1ccccc1)C(=O)N[C@@H](CO)C(=O)N2)C(=O)N[C@@H](Cc1csc2ccccc12)C(=O)N[C@@H](CO)C(N)=O (stereo partly drawn) [I-1103, Ac-PL3-Asp-Npg-B5-Asp-Asp-Ala-Ala-Phe-Ser-PyrS2-2OMeF-BztA-Ser-NH2]
2.38 | 10 | 17700 | 48 (≈ 91.2 µg/mL) | – | – | COc1ccccc1C[C@H](NC(=O)[C@]12CCN(C1)C(=O)OCCCC=CCCCC1(CCCC=CC[C@]3(CCCN3C(C)=O)C(=O)N[C@@H](CC(=O)O)C(=O)N[C@@H](CC3CCCCC3)C(=O)N1)C(=O)N[C@@H](CC(=O)O)C(=O)N[C@@H](CC(=O)O)C(=O)N[C@@H](C)C(=O)N[C@@H](C)C(=O)N[C@@H](Cc1ccccc1)C(=O)N[C@@H](CO)C(=O)N2)C(=O)N[C@@H](Cc1csc2ccccc12)C(=O)N[C@@H](CO)C(N)=O (stereo partly drawn) [I-1104, Ac-PL3-Asp-Cha-B5-Asp-Asp-Ala-Ala-Phe-Ser-PyrS2-2OMeF-BztA-Ser-NH2]
